{
  "source": "patent US20240390404A1",
  "about": "“ANTI-HUMAN NOROVIRUS AGENT” (KEIO UNIVERSITY, priority 2018, published 2024)",
  "key": {"[1]": {"system": "human norovirus GII. 6 (K2017 strain)", "experiment": "Human norovirus proliferation inhibition in 2D organoid after 2fp-fucose treatment, GII.6 strain", "assay_type": "cell-based", "settings": "3 days treatment before infection, days 3 and 6 after infection", "description": "(§1) Feces of a human norovirus-infected patent contains a large amount of infectious human norovirus. Thus, the feces of a human norovirus-infected patient is suspended in distilled water or the like to a final concentration of about 10%, to thereby prepare a “10% feces suspension.” The 10% feces suspension is about 10-fold diluted with an ENRA medium. The diluted suspension is added to each of the aforementioned wells having the 2D organoid (5 μL/well) and subjected to incubation for about 3 hours, to thereby proliferate human norovirus. As a result of verification, it has been confirmed that human norovirus proliferates to about 100,000 times the initial count through the culture system employing the 2D organoid.\n(§2) In the Example, there were tested strains of human norovirus obtained from feces of human norovirus infection patients through the aforementioned procedure and stocked before the test. Specifically, three strains belonging to the genetic group 2 (GII) which accounts for 80 to 90% of the infected patients were selected as test targets. The isolated strain lineages included in GII (FIG. 1) were GII. 6 belonging to “Lineage 1,” GII. […]\n(§3) The effect of 2fp-fucose treatment on proliferation of human norovirus was investigated for each lineage of norovirus. […] 4, and the viral proliferation amount was determined on days 3 and 6 after infection (FIG. 4)."}, "[2]": {"system": "2D organoid derived from intestinal stem cells", "experiment": "Cytotoxicity of 2fp-fucose to 2D organoid (Trypan blue staining)", "assay_type": "cell-based", "settings": "2fp-fucose 3.0 to 1,000 μM, 7 continuous days, versus no treatment (0 μM)", "description": "The 2D organoid derived from intestinal stem cells refers to a 2D organoid for infection and culture of human diarrhea virus (including norovirus) disclosed in Patent Document 2. According to Patent Document 2, the 2D organoid is “obtained by Step 1 in which human intestinal epithelial stem cells, human intestinal epithelial cells, or a tissue including at least one of these cells is subjected to 3-dimensional culturing on the extracellular matrix, to thereby obtain a 3D organoid; and by Step 2 in which the above-obtained 3D organoid is dispersed to prepare single cells; the single cells are subjected to monolayer culturing on an extracellular matrix; and there is obtained a 2D organoid having a single-layer structure of the epithelial cells for forming the human intestinal cavity which include differentiated trophoblastic cells and caliciform cells.” By virtue of the 2D organoid, culturing human norovirus, which was not previously achieved, can be successfully performed.\nThe aforementioned 3D organoid is degraded by use of, for example, TrypLE™ Express (product of Thermo Fisher SCIENTIFIC), to thereby yield single cells. […]\nThe 2D organoid was treated with 2fp-fucose (3.0 to 1,000 μM) for 7 continuous days. In each case, the number of dead cells was determined through Trypan blue staining. […]"}, "[3]": {"system": "fucose-modified proteins including HBGA on the surface of 2D organoid", "experiment": "HBGA / fucose-modified protein expression on the surface of 2D organoid (binding of FITC-labeled UEA-1)", "assay_type": "cell-based, human", "settings": "2fp-fucose 0, 8, 40, 200, 1,000 μM, 4 continuous days", "description": "The 2D organoid was subjected to a 2fp-fucose treatment (0, 8, 40, 200, and 1,000 μM) for 4 continuous days. Reduction of fucose-modified proteins including HBGA formed on the cell surfaces was investigated by checking binding of FITC (phosphor)-labeled UEA-1 (ulex europaeus agglutinin-1)."}, "VLP of norovirus GII. 4": {"system": "VLP of norovirus GII. 4", "experiment": "Binding of AF488-labeled VLPs of norovirus GII.4 to the surface of 2fp-fucose-treated 2D organoid", "assay_type": "cell-based, human norovirus", "settings": "2fp-fucose 0, 8, 40, 200, 1,000 μM, 4 treatment days", "description": "In the Example, a nucleotide sequence (AB447456) encoding a structural protein domain of norovirus GII. 4 was incorporated into a baculovirus, and the sequence was expressed in insect cells (SF9 cells). The expression product was used in the Example.\nSeparately, VLPs of norovirus GII. 4 were labeled with AF488 (Alexa Fluor 488; green phosphor) and purified. The thus-prepared labeled VLPs were added to the 2fp-fucose-treated 2D organoid, and a state of binding of VLPs to the surface of the 2fp-fucose-treated 2D organoid was observed. Similar to the case of UEA-1, the 2fp-fucose concentration in the treatment was 0, 8, 40, 200, and 1,00 0 μM (for 4 treatment days). […] When the 2fp-fucose concentration exceeded 40 μM, definite reduction in VLP adsorption on the surface of 2D organoid was observed (FIG. 3(b)). FIG. 3(b) includes monochrome photographic images."}, "[4]": {"system": "human norovirus GII.3 (TCH2004 strain)", "experiment": "Human norovirus proliferation inhibition in 2D organoid after 2fp-fucose treatment, GII.3 strain", "assay_type": "cell-based", "settings": "3 days treatment before infection, days 3 and 6 after infection", "description": "as §1, §2, §3"}},
  "note": "“Also recorded” adds a separate entry of the source.",
  "data": [
    {"molecule": "CC(=O)OC1O[C@@H](C)[C@@H](OC(C)=O)[C@@H](OC(C)=O)[C@@H]1F", "note": "(stereo partly drawn) [2fp-fucose, (3S,4R,5R,6S)-3-fluoro-6-methyltetrahydro-2H-pyran-2,4,5-triyl triacetate]", "values": [
      {"measurement": "concentration of complete viral proliferation inhibition", "setting": "[1]", "result": "≥ 200", "unit": "µM"},
      {"measurement": "cell viability (number of dead cells, Trypan blue staining)", "setting": "[2]", "result": "no significant difference was observed in cell viability; also recorded: no effect on cell viability was confirmed"},
      {"measurement": "amount of α-link fucose including HBGA on the surface of the 2D organoid (UEA-1 binding)", "setting": "[3]", "result": "decrease in a concentration-dependent manner"},
      {"measurement": "VLP binding amount on the surface of 2D organoid", "setting": "VLP of norovirus GII. 4", "result": "decrease in a concentration-dependent manner"},
      {"measurement": "concentration of complete viral proliferation inhibition", "setting": "[4]", "result": "≥ 40", "unit": "µM"}
    ]}
  ]
}
